This test has as its system anti-4,15-diacetoxyscirpenol monoclonal antibody secreted by hybridoma cell strain DAS5G11E7. It is filed as binding, mouse. The conditions noted are these: in ng/mL.

With HT-2 toxin, the IC50 was >100,000.

On to `CC1=C[C@H]2O[C@@H]3[C@H](O)C[C@](C)([C@@]2(CO)[C@H](O)C1=O)[C@]31CO1` [DON, Deoxynivalenol], for which the IC50 is >100,000.

Consider `C[C@@H]1Cc2c(Cl)cc(C(=O)N[C@@H](Cc3ccccc3)C(=O)O)c(O)c2C(=O)O1` [OTA, ochratoxin], for which the IC50 is reported as >100,000.

With 3-acetyldeoxynivalenol [3-acetyl-DON], the IC50 is >100,000.

(Values after patent US11815511B2 (priority 2019, dated 2023).)
